Data on two substances can be found in patent publication US11857601B2, “Pharmaceutical composition for cancer treatment comprising fusion protein including IL-2 protein and CD80 protein and anticancer drug” (GI INNOVATION, INC., priority 2020, dated 2024).

Marks after values point to notes of the source that are not given here.

The subject of assay [1] is CD8+ T cells and NK cells. Nature of the assay: Proliferation of CD8+ T cells and NK cells in mouse spleen. The assay is classed as in vivo, C57BL/6 mice. The conditions noted are these: 40.5 μg i.p., spleen five days after injection; compared with GI101w. The method, then: 7-week-old C57BL/6 mice purchased from Orient Bio (Korea) were divided into 3 groups, each group including 3 mice, and PBS, GI101, or GI101w was injected intraperitoneally thereinto. Here, GI101 and GI101w were respectively prepared to be at 40.5 μg in 200 μl of PBS, and injected intraperitoneally thereinto. Five days after the injection, the spleens were removed from the mice of each group. The cells were isolated therefrom, and the total number of cells was measured using a hematocytometer. Splenocytes were examined for proportions of CD8+ T cells and NK cells therein, with FACS analysis using staining with APC-CD3ε antibody (Biolegend; 145-2C11), PE-NK1.1 antibody (Biolegend; PK136), and Pacific blue-CD8α antibody (BD; 53-6.7). As such, the numbers of CD8+ T cells and NK cells present in the spleen were calculated.

The test system of assay [2] is NCl-H292 cancer cell line with human PBMCs. Nature of the assay: T cell activity inhibition by cancer cells expressing PD-L1 and CTLA-4 (IFN-γ ELISA). The conditions noted are these: 50 nM, 3 days. The assay is classed as cell-based. The method, then: NCl-H292 cancer cell line expressing PD-L1 and CTLA-4 was cultured for 3 hours in a culture medium containing 10 μg/ml Mitomycin C (Sigma), and then Mitomycin C was removed by washing with the culture medium. Thereafter, 5×10^4 cells of the Mitomycin C-treated NCl-H292 cancer cell line were incubated with 1×10^5 cells of human PBMCs in a 96-well microplate. Here, treatment with 5 μg/ml of PHA (Sigma) was performed for T cell activity. […] After 3 days, the supernatant of the cell culture was collected and the amount of IFN-γ was quantified using an ELISA kit (Biolegend).
As a positive control, human PBMCs stimulated with PHA in the absence of the Mitomycin C-treated NCl-H292 cancer cell line were used; and as a negative control, human PBMCs stimulated with PHA in the presence of the Mitomycin C-treated NCl-H292 cancer cell line were used. An experimental method using the IFN-7 ELISA kit was carried out in the same manner as in Experimental Example 9.3.
For orientation: ELISA stands for enzyme-linked immunosorbent assay.

The next assay relates to CT-26 cancer cell line. Nature of the assay: GI101 in mice transplanted with CT-26 (Exp. Ex. 16.1). The assay is classed as in vivo, BALB/c mice. The method, then:
The tumor size was measured daily.

A further assay concerns MDA-MB-231 cells. The assay can be described thus: GI101 and Keytruda in humanized mice xenotransplanted with MDA-MB-231. The class given is in vivo, human. The protocol: Fetal bovine serum (FBS, 16000-044, Thermofisher scientific, USA), penicillin-streptomycin; 10,000 units/ml penicillin and 10,000 μg/ml streptomycin (15140122, Thermofisher scientific, USA); and RPMI1640 (A1049101, Thermofisher scientific, USA) per 100 ml were mixed and used.
The cells were suspended using Trypsin-EDTA (Cat. 25200-072, Thermofisher scientific, USA). The suspended cells were collected by centrifugation (125×g, 5 minutes) using a centrifuge, transferred to a new medium and a new flask, and passage cultured. The cultured cells were put to a centrifugation tube on the day of cell line transplantation and then collected. […] 8-week-old female NSGb2m (NOD.Cg-B2m^tm1UncPrkdc^scidIl2rg^tm1Wjl/SzJ) mice were purchased from Joongang Bio (Korea) and used for the test. The body weight was measured the next day after the end of the quarantine and acclimation period, and then the human-derived PBMC cell suspension (5×10^6 cells/0.2 ml) prepared for healthy animals was filled into a disposable syringe and administered to the caudal vein of the animals. General symptoms were observed once a day after cell transplantation.
A certain period of time after the cell transplantation, the tumor volume was measured for animals with no abnormalities in the health condition of the animals, and 32 subjects were selected so that the average of each group reached 40 to 80 mm^3. The selected animals were grouped into a total of 4 groups as evenly as possible based on tumor volume and body weight, each group including 8 animals.
General symptoms such as appearance, behavior, and excrement were observed once a day during the observation period, and deceased animals were identified. Body weight was measured on the day of cell line transplantation, twice a week, and on the day of animal sacrifice. The major axis (maximum length, L) and minor axis (perpendicular width, W) of the tumor were measured using a caliper (Digital caliper, mitutoyo, Japan) three times a week during the observation period, and the tumor volume (TV) was calculated by substituting them into the following equations.
The tumor volume before administration of each subject was set as the value measured at the time of grouping.

The next assay has as its system 4T1 cells. The assay can be described thus: mGI-101 and Abemaciclib in 4T1 allotransplanted tumor model. The class given is in vivo, BALB/c mice. The conditions noted are these: 11 mice per group. The method, then: 4T1 cells were purchased from ATCC (USA) and cultured in RPMI1640 medium (Gibco) containing 10% FBS (Gibco) and 1% antibiotic/antifungal agent (Gibco). The cultured cells were harvested using trypsin (Gibco) and then suspended in PBS. In order to establish an allotransplanted tumor model, 1×10^5 of 4T1 cells were subcutaneously injected into the back of BALB/c female mice (8-week-old).
A certain period of time after cell inoculation of the tumor grafts of the mice, the tumor volume was measured for animals with no abnormalities in the health condition of the animals, and the mice were randomly selected and assigned, each group including 11 mice.
The death of the mouse, the type of general symptoms, the date of onset, and the severity of symptoms were observed once a day during the test period, and recorded for each subject.
The tumor volume before administration of each subject was set as the value measured at the time of grouping, and the anti-tumor efficacy was evaluated as compared with the vehicle control.
All statistical calculations were performed using Prism 8.0 (Graph Pad Software Inc, USA). The comparison of tumor volume measurements was made through two-way analysis of variance followed by Tukey's multiple comparison test. A p value of less than 0.05 was considered significant.

Another assay deals with CT26 cells. The assay can be described thus: mGI-101 and Axitinib in CT26 allotransplanted tumor model.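 Note: subcutaneous CT26 syngeneic tumors in male BALB/c mice, dosing started once tumors were near 50 mm^3, drugs given orally or intraperitoneally for up to 3 weeks.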 The conditions noted are these: mGI-101 3 mg/kg IP, Axitinib 30 mg/kg PO.
[3] abbreviates: day 42 vs day 21 after tumor transplantation, 8 animals per group.

Description for CT26 cells: Mouse-derived colorectal cancer cells, CT26 (Mus musculus, Colon adenocarcinoma), and mouse-derived lung cancer cells, LL/2 (Mus musculus, Lung adenocarcinoma), were purchased from ATCC (USA) and used for the test. The cells to be used for the test were thawed, mixed with RPMI1640 (A1049101, Thermofisher scientific) medium containing 10% FBS (fetal bovine serum, Gibco, 10082-147), and then placed in a cell culture flask, and cultured in a 37° C., 5% CO2 incubator. The cells were washed with PBS, and then the cells were isolated using Trypsin-EDTA (15090, Gibco), and centrifugation (125×g, 5 minutes) was performed to discard the supernatant, and then the cells were suspended in a new medium to obtain the cell suspension. The viability of the cells was identified, and then a cell line was prepared by diluting in a medium to a concentration of 5.0×10^6 cells/mL.
6-week-old male BALB/cAnHsd mice or C57BL/6NHsd mice were purchased and used for the test. After the end of the acclimation period of 7 days, the cells were transplanted into healthy animals. The cell suspension (5×10^6 cells/mL) was dispensed, and filled into a disposable syringe, and transplantation of the suspension was performed by subcutaneous administration at 0.1 mL/head in the right dorsal region of the animals. General symptoms were observed once a day during the engraftment and growth period after cell line transplantation.
After the inoculation of the cell line was performed, when the tumor size at the site to which the cell line was transplanted reached about 50 mm^3, the tumor size of each group was distributed as uniformly as possible according to the ranked tumor size.
The test substance was administered orally or intraperitoneally, and administered for 3 weeks depending on the composition of the test group. In the case of oral administration, the animals were fixed with the cervical spine skin fixation method, and administered directly into the stomach using a sonde for oral administration. In the case of intraperitoneal administration, the animals were fixed with the cervical spine skin fixation method, and administered intraperitoneally using a syringe equipped with a 26 gauge needle. The administration rate was not to exceed 200 μl/min.
Syngeneic model was prepared by subcutaneously transplanting the CT26 cell line into Balb/c mice, and then the test substance was administered to evaluate the anticancer effect.

As for “GI101: fusion protein: human CD80 fragment, Ig hinge, Fc domain, linker, IL-2 variant (2M) (R38A, F42A); SEQ ID NO: 9”, the “proliferation of CD8+ T cells and NK cells in vivo” value in assay [1] is “activated proliferation”. Also, in assay [2], the “immune response inhibited by the cancer cell line overexpressing PD-L1 (IFN-γ)” value was “effectively activated” and the “signaling of CTLA-4 expressed on effector T cells” value is given as “inhibited”. Moreover, the tumor inhibitory effect entry with CT-26 cancer cell line (GI101 0.1 mg/kg, compared with anti-PD-1 antibody group (p<0.05)) is listed as “significant tumor inhibitory effect”. The Tumor growth inhibition entry with CT-26 cancer cell line (GI101 0.1 or 1 mg/kg, anti-PD-1 5 mg/kg, anti-CTLA-4 5 mg/kg i.v., vs negative control) was “significant tumor growth inhibition”. The tumor growth entry in the assay on MDA-MB-231 cells (GI101 6 mg/kg, Keytruda 5 mg/kg, 4 administrations, compared with the control (hIgG4)) is recorded as “tumor growth inhibition”. In the assay on MDA-MB-231 cells (setting [3]), the “number of mice with tumor growth inhibition rate of 30% or more” value is reported as 5 mice, the “number of mice with tumor growth inhibition rate of 50% or more” value is 5 mice and the “number of mice with tumor growth inhibition rate of 80% or more” value was 2 mice.

In the case of “mGI101: fusion protein: mouse CD80, Ig hinge, Fc domain, linker, IL-2 variant (2M) (R38A, F42A); SEQ ID NO: 15”, in the assay with 4T1 cells, the “number of mice with tumor growth inhibition rate of 30% or more” value came to 3 mice. Besides, in the assay with 4T1 cells, the “number of mice with tumor growth inhibition rate of 50% or more” value is 1 mice. The “number of mice with tumor growth inhibition rate of 80% or more” value with 4T1 cells is “no mouse”. Moreover, the Tumor size with CT26 cells (Day 0, mean ± SD) is recorded as 63.53 ± 11.56 mm^3; in the assay on CT26 cells (Day 5, mean ± SD), 186.53 ± 76.61 mm^3; in the assay on CT26 cells (Day 7, mean ± SD), 249.93 ± 149.08 mm^3; in the assay on CT26 cells (Day 9, mean ± SD) it was 290.71 ± 165.17 mm^3; in the assay with CT26 cells (Day 12, mean ± SD), 352.46 ± 195.64 mm^3; in the assay with CT26 cells (Day 14, mean ± SD) it was 520.04 ± 307.47** mm^3. Moreover, the Tumor size was 962.28 ± 634.90** mm^3 in the assay with CT26 cells (Day 16, mean ± SD); 1395.48 ± 982.61** mm^3 in the assay on CT26 cells (Day 19, mean ± SD); 1987.45 ± 1320.62**** mm^3 in the assay on CT26 cells (Day 21, mean ± SD). Besides, the Tumor growth inhibition with CT26 cells (Day 5, mean ± SD) is given as 58.32 ± 24.95 %; with CT26 cells (Day 7, mean ± SD), 62.12 ± 38.89 %; in the assay on CT26 cells (Day 9, mean ± SD) it was 62.87 ± 34.95 %; in the assay on CT26 cells (Day 12, mean ± SD) it was 66.48 ± 29.50 %; in the assay on CT26 cells (Day 14, mean ± SD), 65.87 ± 29.12 %; with CT26 cells (Day 16, mean ± SD) it was 52.36 ± 41.33 %. Further, the Tumor growth inhibition in the assay with CT26 cells (Day 19, mean ± SD) came out at 41.48 ± 52.17 %; in the assay on CT26 cells (Day 21, mean ± SD), 44.57 ± 46.55 %.
